According to PMC8580319, “Dual activities of ACC synthase: Novel clues regarding the molecular evolution of ACS genes” (Science Advances, 2021):

Tests used:
[1] = biological target: T1, AtACS7 (Arabidopsis thaliana, UniProt Q9STR4); assay: Cβ-S lyase activity with and without PLP, pyruvate assay; assay type: biochemical; conditions: L-cystine 4 mM, 30°C
T1 construct: gene ACS7; recombinant from E. coli Rosetta 2 (DE3) pLysS; pET-28a (His) or pGEX-6p-1 (GST); His-tagged protein for crystals; dimer
T1 sequence (Q9STR4 1-447): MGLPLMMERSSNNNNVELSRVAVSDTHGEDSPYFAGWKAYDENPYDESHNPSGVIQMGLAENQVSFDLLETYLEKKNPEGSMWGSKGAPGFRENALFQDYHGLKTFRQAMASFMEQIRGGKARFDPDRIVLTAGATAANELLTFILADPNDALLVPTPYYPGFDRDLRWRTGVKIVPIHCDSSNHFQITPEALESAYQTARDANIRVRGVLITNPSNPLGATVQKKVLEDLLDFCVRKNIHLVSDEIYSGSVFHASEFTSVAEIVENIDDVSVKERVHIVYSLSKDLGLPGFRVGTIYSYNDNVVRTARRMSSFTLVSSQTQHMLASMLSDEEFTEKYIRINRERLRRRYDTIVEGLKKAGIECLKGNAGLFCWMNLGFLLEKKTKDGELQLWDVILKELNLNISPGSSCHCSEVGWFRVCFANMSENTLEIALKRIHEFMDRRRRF

[2] = biological target: T1, AtACS7; assay: inhibition of Cβ-S lyase activity, pyruvate assay; assay type: biochemical; conditions: L-cystine 4 mM, 100 μM PLP, 30°C; forms adduct with PLP
[3] = biological target: AtACS7-R6 (AtACS7 in which BOX2 is replaced by PpACL1-BOX2) (Arabidopsis | Physcomitrella patens); assay: crystal structure; AtACS7-R6 with PPG (1 mM PLP and AVG added), hanging drop, 0.1 M Hepes pH 7.6, 6% PEG-10000; 2.95 Å; one dimer in the asymmetric unit
[4] = biological target: T2, AtACS7 (Arabidopsis thaliana, UniProt Q9STR4, D245N); assay: ACC formation, converted to ethylene, GC; assay type: biochemical; conditions: ACS activity, reduced; 0.4 mM SAM, pH 8.5, 30°C, 10 μM PLP
T2 construct: gene ACS7; recombinant from E. coli Rosetta 2 (DE3) pLysS; pET-28a (His) or pGEX-6p-1 (GST); His-tagged protein for crystals; dimer
T2 sequence (Q9STR4 1-447 D245N): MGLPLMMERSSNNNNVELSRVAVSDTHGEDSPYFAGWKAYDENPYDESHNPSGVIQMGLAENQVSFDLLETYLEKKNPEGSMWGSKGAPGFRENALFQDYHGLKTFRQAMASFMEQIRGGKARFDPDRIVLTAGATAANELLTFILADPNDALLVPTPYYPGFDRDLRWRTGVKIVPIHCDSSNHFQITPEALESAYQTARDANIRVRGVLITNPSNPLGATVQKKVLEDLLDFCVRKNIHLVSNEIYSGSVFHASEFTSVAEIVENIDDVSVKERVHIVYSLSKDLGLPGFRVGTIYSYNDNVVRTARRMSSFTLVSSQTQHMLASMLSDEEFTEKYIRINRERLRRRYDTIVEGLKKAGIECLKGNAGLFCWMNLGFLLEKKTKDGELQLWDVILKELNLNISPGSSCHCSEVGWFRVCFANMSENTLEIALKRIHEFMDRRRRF

[5] = biological target: the molecule itself; assay: crystal structure; AtACS7 with PPG (1 mM PLP and AVG added), hanging drop, 0.1 M tris pH 8.6, 23% PEG-3350; 2.20 Å; four complexes as two dimers in the asymmetric unit

Cc1ncc(COP(=O)(O)O)c(C=O)c1O [PLP]
Cβ-S lyase activity with and without PLP, pyruvate assay [1]: The Cβ-S lyase activity of AtACS7 was also PLP dependent

NCCO/C=C/[C@H](N)C(=O)O [AVG]
inhibition at 5 μM [2]: could be totally suppressed by adding AVG to the reaction mixture

AtACS7-R6 (AtACS7 in which BOX2 is replaced by PpACL1-BOX2) (enzyme)
stoichiometry N [3]: 2

C[S+](CC[C@H](N)C(=O)O)C[C@H]1O[C@@H](n2cnc3c(N)ncnc32)[C@H](O)[C@@H]1O (some centres unmarked) [SAM]
ACC formation, converted to ethylene, GC [4]: mutant still retained considerable, albeit reduced, ACS activity

B1: Arabidopsis ACS7 (AtACS7), 1-aminocyclopropane-1-carboxylate (ACC) synthase 7 (enzyme)
chain: MGLPLMMERSSNNNNVELSRVAVSDTHGEDSPYFAGWKAYDENPYDESHNPSGVIQMGLAENQVSFDLLETYLEKKNPEGSMWGSKGAPGFRENALFQDYHGLKTFRQAMASFMEQIRGGKARFDPDRIVLTAGATAANELLTFILADPNDALLVPTPYYPGFDRDLRWRTGVKIVPIHCDSSNHFQITPEALESAYQTARDANIRVRGVLITNPSNPLGATVQKKVLEDLLDFCVRKNIHLVSDEIYSGSVFHASEFTSVAEIVENIDDVSVKERVHIVYSLSKDLGLPGFRVGTIYSYNDNVVRTARRMSSFTLVSSQTQHMLASMLSDEEFTEKYIRINRERLRRRYDTIVEGLKKAGIECLKGNAGLFCWMNLGFLLEKKTKDGELQLWDVILKELNLNISPGSSCHCSEVGWFRVCFANMSENTLEIALKRIHEFMDRRRRF
notes: ACC synthase 7 (AtACS7) of Arabidopsis thaliana, TAIR locus AT4G26200; vector pET-28a or pGEX-6p-1 per the methods, HisTrap purification points to the His form; also called wild-type AtACS7; source: E. coli BL21 [Rosetta 2 (DE3) plysS], purified (HisTrap, Hitrap Q HP ion exchange, Superdex 200 gel filtration)
stoichiometry N [5]: 2
